Laboratory results as given in US20210403419A1, “SERINE DERIVATIVE COMPOUND FOR THE PREVENTION OR TREATMENT OF CENTRAL NERVOUS SYSTEM DISEASES” (Astrogen Co., Ltd., priority 2019, published 2021).

Assays:
[1] = system: hippocampal neuronal cell HT-22; assay: MTT cell viability / neuronal cell proliferation assay; settings: for effect on cell proliferation in complete medium: L-serine versus AST-009, 25 to 10,000 μg
Description: Murine hippocampal neuronal cell line HT-22 was cultured in Dulbecco's Modified Eagle's Medium (DMEM) supplemented with 10% fetal bovine serum (FBS) and 100 μg/ml gentamycin at 37° C. under a 5% CO2 atmosphere. In this Example, cells at passage 15 or below were used.
Cell proliferation activity was examined by an MTT assay for measuring cell viability. First, hippocampal neuronal cell HT-22 (1×10^4 cells) was incubated with each of serially diluted sample solutions in 96-well plates for 16 hours, and then mixed with 50 μl of MTT (3-(4,5-dimethyl thiazolyl)2,5-diphenyl tetrazolium bromide) solution (1.1 mg/ml), followed by additional incubation for 4 hours. The formed formazan crystal was dissolved in 150 μl of […], and the optical density (OD) at 540 nm was measured using a plate reader.

[2] = system: mouse hippocampal neuronal HT-22 cells treated with DMNQ; assay: Neuronal cell protection against DMNQ-induced oxidative stress (DiOC6 staining); assay type: cell-based; settings: DMNQ 10 μM, DMNQ alone 77.8%
Description: First, 1×10^6 cells were washed three times with 2% FBS-containing PBS solution, and the washed cells were suspended in 70% ethanol and fixed at 4° C. for 1 hour. The fixed cells were washed twice with the same solution, suspended in 250 μl of RNase A solution (50 μg/ml concentration), and incubated at 37° C. for 30 minutes to remove RNA from the cells. Then, DNA in the cells was stained at room temperature for 20 minutes by adding 250 μl of 1.12% sodium citrate buffer (pH 8.45) containing 50 μg/ml of propidium iodide. The cells were analyzed with a flow cytometer (FACS Calibur), and the distribution of the cell cycle was examined based on the content of stained DNA in each cell.
The cell protective activity of the selected drug (AST-009) against DMNQ-induced oxidative stress was compared by DiOC6 staining. […] Thus, it could be seen that the cell protective activity of AST-009 was much stronger than that of L-serine.

[3] = Blood-brain barrier (BBB) permeability in ICR mice; assay type: in vivo; settings: 500 mg/kg
Description: Each of L-serine and AST-099 was administered to 7-week-old ICR mice (n=3) at a dose of 500 mg/kg, and then the brain tissue and the blood were collected. The concentrations of L-serine distributed in the blood and the brain were quantified using LC/MS, and the BBB permeability was compared between the drugs by calculating the ratio of the concentration of L-serine in the brain to that in the blood.

[4] = L-serine quantified by LC/MS, ICR mice, n=3

Row | Structure (SMILES) | HT-22 cell proliferation (cell viability, MTT) ([1]; L-serine/glycerin-deficient medium, treatment concentration of 10,000 μg/ml (=10 mg/ml)) | effect on cell proliferation in complete medium [1] | cell damage rate (membrane potential loss) ([2]; compound 0.5 mg/ml) [%] | cell damage rate (membrane potential loss) ([2]; compound 1 mg/ml) [%] | cell damage rate (membrane potential loss) ([2]; compound 5 mg/ml) [%] | Concentration, Brain tissue ([3]; mouse, in vivo) [ng/g] | Concentration, Plasma ([3]; mouse, in vivo) [ng/mL] | effect on cell proliferation at high concentration ([1]; L-serine/glycerin-deficient medium, concentration of 1 mg/ml or more) | Concentration, Brain tissue [3, 4] [ng/g] | Concentration, Plasma [3, 4] [ng/mL] | Kp ([3]; mouse, brain/plasma, ratio of L-serine concentration in brain to that in blood, ICR mice, n=3, read-out: Cbrain/Cplasma) | Cbrain/Cplasma ([3]; ratio of L-serine concentration in brain to that in blood, ICR mice, n=3)
1 | NCCCC[C@H](NC(=O)[C@H](CO)NC(=O)[C@H](CO)NC(=O)[C@H](CO)NC(=O)O)C(=O)O [AST-009, H-Lys-Ser-Ser-Ser-OH] | up to 139% | no significant difference | 64.3 | 45.5 | 20.0 | 7944 ± 427 | 1205 ± 120 | – | – | – | – | –
2 | N[C@@H](CO)C(=O)O [L-serine] | – | no significant difference | 59.9 | 58.7 | 54.5 | – | – | slightly inhibited cell proliferation | 7314 ± 2071 | 2121 ± 1192 | 4.16 ± 2.03 | 4.16 ± 2.03
